Data from PubChem BioAssay AID1963980 (Molecular Pharmacology Branch, DTP, NCI, 2024).
Where “and” joins values, the source holds several entries; their conditions need not be identical. Equal values may be shown once.

System: 475296-252-R-J1-PDC spheroid viability
Experiment: Anticancer human tumor 475296-252-R-J1-PDC patient-derived rectal carcinoma cell line growth inhibition [PI3K]
Settings: spheroids with HUVEC and MSC; for viability, T/C: stronger effect = lower value
In short: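 Spheroid viability read-out. Co-cultures contained the tumor line plus HUVEC and human MSCs. Each agent was paired with a PI3K inhibitor (inavolisib, alpelisib, duvelisib, copanlisib) across half-log dilutions starting at clinical Cmax, or at 10 microM when Cmax was unknown.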

[1] = curve of first compound, second compound 0.0316 µM
[2] = curve of first compound, second compound 0.1 µM
[3] = curve of first compound, second compound 0.316 µM
[4] = curve of first compound, second compound 1 µM
[5] = second compound 0.0316 µM, first compound 0.0316 µM
[6] = second compound 0.0316 µM, first compound 0.1 µM
[7] = second compound 0.0316 µM, first compound 0.316 µM
[8] = second compound 0.0316 µM, first compound 1 µM
[9] = second compound 0.0316 µM, first compound 3.16 µM
[10] = second compound 0.0316 µM, first compound 10 µM
[11] = second compound 0.1 µM, first compound 0.0316 µM
[12] = second compound 0.1 µM, first compound 0.1 µM
[13] = second compound 0.1 µM, first compound 0.316 µM
[14] = second compound 0.1 µM, first compound 1 µM
[15] = second compound 0.1 µM, first compound 3.16 µM
[16] = second compound 0.1 µM, first compound 10 µM
[17] = second compound 0.316 µM, first compound 0.0316 µM
[18] = second compound 0.316 µM, first compound 0.1 µM
[19] = second compound 0.316 µM, first compound 0.316 µM
[20] = second compound 0.316 µM, first compound 1 µM
[21] = second compound 0.316 µM, first compound 3.16 µM
[22] = second compound 0.316 µM, first compound 10 µM
[23] = second compound 1 µM, first compound 0.0316 µM
[24] = second compound 1 µM, first compound 0.1 µM
[25] = second compound 1 µM, first compound 0.316 µM
[26] = second compound 1 µM, first compound 1 µM
[27] = second compound 1 µM, first compound 3.16 µM
[28] = second compound 1 µM, first compound 10 µM
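Also: spheroids exposed to agents for seven days before readout.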

## CCCS(=O)(=O)Nc1ccc(F)c(C(=O)c2c[nH]c3ncc(-c4ccc(Cl)cc4)cc23)c1F + COc1c(OCCCN2CCOCC2)ccc2c3n(c(=NC(=O)c4cnc(N)nc4)nc12)CCN3
Curve of first compound, second compound 0.00316 µM
  IC50: > 10 µM
Curve of first compound, second compound 0.01 µM
  IC50: > 10 µM
[1]
  IC50: > 10 µM
[2]
  IC50: > 10 µM
[3]
  IC50: > 10 µM
[4]
  IC50: > 10 µM
Second compound 0.00316 µM, first compound 0.0316 µM
  viability, T/C: 102%
Second compound 0.00316 µM, first compound 0.1 µM
  viability, T/C: 85.2%
Second compound 0.00316 µM, first compound 0.316 µM
  viability, T/C: 98.7%
Second compound 0.00316 µM, first compound 1 µM
  viability, T/C: 103%
Second compound 0.00316 µM, first compound 3.16 µM
  viability, T/C: 98.4%
Second compound 0.00316 µM, first compound 10 µM
  viability, T/C: 105%
Second compound 0.01 µM, first compound 0.0316 µM
  viability, T/C: 94%
Second compound 0.01 µM, first compound 0.1 µM
  viability, T/C: 99.5%
Second compound 0.01 µM, first compound 0.316 µM
  viability, T/C: 87.7%
Second compound 0.01 µM, first compound 1 µM
  viability, T/C: 86.9%
Second compound 0.01 µM, first compound 3.16 µM
  viability, T/C: 94.2%
Second compound 0.01 µM, first compound 10 µM
  viability, T/C: 100%
[5]
  viability, T/C: 91.9%
[6]
  viability, T/C: 91.1%
[7]
  viability, T/C: 93.8%
[8]
  viability, T/C: 94.8%
[9]
  viability, T/C: 83.2%
[10]
  viability, T/C: 87.4%
[11]
  viability, T/C: 83%
[12]
  viability, T/C: 80%
[13]
  viability, T/C: 84.5%
[14]
  viability, T/C: 78.8%
[15]
  viability, T/C: 66.4%
[16]
  viability, T/C: 71.3%
[17]
  viability, T/C: 67.6%
[18]
  viability, T/C: 69.8%
[19]
  viability, T/C: 64.9%
[20]
  viability, T/C: 70.2%
[21]
  viability, T/C: 57.5%
[22]
  viability, T/C: 64.6%
[23]
  viability, T/C: 62.5%
[24]
  viability, T/C: 64.1%
[25]
  viability, T/C: 79.8%
[26]
  viability, T/C: 57.9%
[27]
  viability, T/C: 73.3%
[28]
  viability, T/C: 58.1%

## CC1(C)CCC(Nc2ncc(C(F)(F)F)c(-c3c[nH]c4c(P(C)(C)=O)c(C#N)ccc34)n2)CN1 (configuration not stated)
Compound 0.0316 µM
  viability, T/C: 90.7% [middle of 4 runs]
Compound 0.1 µM
  viability, T/C: 98.6% [middle of 4 runs]
Compound 0.316 µM
  viability, T/C: 109% [middle of 4 runs]
Compound 1 µM
  viability, T/C: 129% [middle of 4 runs]
Compound 3.16 µM
  viability, T/C: 148% (2×) and 176% and 175%
Curve of compound
  IC50: > 10 µM

## Cn1ncc(Cl)c1-c1cc(C(=O)NC(CN)Cc2cccc(F)c2)sc1Cl (configuration not stated)
Compound 0.0316 µM
  viability, T/C: 85.6% [middle of 4 runs]
Compound 0.1 µM
  viability, T/C: 88.6% [middle of 4 runs]
Compound 0.316 µM
  viability, T/C: 68% [middle of 4 runs]
Compound 1 µM
  viability, T/C: 65.5% [middle of 4 runs]
Compound 3.16 µM
  viability, T/C: 75.9% [middle of 4 runs]
Compound 10 µM
  viability, T/C: 70.7% [middle of 4 runs]
Curve of compound
  IC50: > 10 µM

## Cn1ncc(Cl)c1-c1cc(C(=O)NC(CN)Cc2cccc(F)c2)sc1Cl (configuration not stated) + Cc1nc(NC(=O)N2CCCC2C(N)=O)sc1-c1ccnc(C(C)(C)C(F)(F)F)c1
[1]
  IC50: > 10 µM
[2]
  IC50: > 10 µM
[3]
  IC50: > 10 µM
[4]
  IC50: > 10 µM
Curve of first compound, second compound 3.16 µM
  IC50: 8.01 µM
Curve of first compound, second compound 10 µM
  IC50: 4.16 µM
[5]
  viability, T/C: 91.1%
[6]
  viability, T/C: 74.3%
[7]
  viability, T/C: 75.3%
[8]
  viability, T/C: 67.1%
[9]
  viability, T/C: 71.3%
[10]
  viability, T/C: 67.4%
[11]
  viability, T/C: 96.9%
[12]
  viability, T/C: 85.2%
[13]
  viability, T/C: 66.8%
[14]
  viability, T/C: 54%
[15]
  viability, T/C: 64.4%
[16]
  viability, T/C: 67.4%
[17]
  viability, T/C: 77.6%
[18]
  viability, T/C: 83.5%
[19]
  viability, T/C: 73.4%
[20]
  viability, T/C: 55.9%
[21]
  viability, T/C: 67.3%
[22]
  viability, T/C: 54%
[23]
  viability, T/C: 84.5%
[24]
  viability, T/C: 85.4%
[25]
  viability, T/C: 78%
[26]
  viability, T/C: 58.5%
[27]
  viability, T/C: 62.8%
[28]
  viability, T/C: 51.2%
Second compound 3.16 µM, first compound 0.0316 µM
  viability, T/C: 83.1%
Second compound 3.16 µM, first compound 0.1 µM
  viability, T/C: 78.8%
Second compound 3.16 µM, first compound 0.316 µM
  viability, T/C: 84.2%
Second compound 3.16 µM, first compound 1 µM
  viability, T/C: 67%
Second compound 3.16 µM, first compound 3.16 µM
  viability, T/C: 61.5%
Second compound 3.16 µM, first compound 10 µM
  viability, T/C: 47.2%
Second compound 10 µM, first compound 0.0316 µM
  viability, T/C: 84.8%
Second compound 10 µM, first compound 0.1 µM
  viability, T/C: 78.8%
Second compound 10 µM, first compound 0.316 µM
  viability, T/C: 81.7%
Second compound 10 µM, first compound 1 µM
  viability, T/C: 69.3%
Second compound 10 µM, first compound 3.16 µM
  viability, T/C: 57.6%
Second compound 10 µM, first compound 10 µM
  viability, T/C: 28.5%
